This note sets out measurements from BindingDB's records for doi:10.1021/jm030084x (University of Illinois At Urbana-Champaign, 2003).

A value given as a limit tells only on which side of the number the result lay.

This assay deals with farnesyl diphosphate synthase (Leishmania major). Briefly: Inhibitory activity against Leishmania major Farnesyl-diphosphatesynthase (FPP synthase).

Regarding `Cc1cc(C)nc(NC(P(=O)(O)O)P(=O)(O)O)c1` [(4,6-dimethyl-2-pyridinyl)-aminomethylene-1,1-bisphosphonate], the IC50 – broadly, the concentration that inhibits the measured activity by half – is more than 100 µM. The same measure for `O=P(O)(O)C(Nc1ccc(Cl)nc1)P(=O)(O)O` [[(6-Chloro-pyridin-3-ylamino)-phosphono-methyl]-phosphonic acid]: more than 100 µM.
